What was measured:
[1] = tested on: LN229 cells; test: High-throughput screening: cell viability (resazurin), compounds with DMSO or Gamitrinib; assay type: cell-based, Human; details: for inhibition at 0.000128 µM / inhibition at 0.00064 µM / inhibition at 0.0032 µM / inhibition at […] / inhibition at 0.08 µM / inhibition at 0.4 µM / inhibition at 2 µM / inhibition at 10 µM: Homo sapiens, LN-229, read-out: Percent inhibition; for inhibition at 0.000128 µM: compound 0.000128 uM + DMSO (control); for inhibition at 0.00064 µM: compound 0.00064 uM + DMSO (control); for inhibition at 0.0032 µM: compound 0.0032 uM + DMSO (control); for inhibition at […]: compound 0.016 uM + DMSO (control); for inhibition at 0.08 µM: compound 0.08 uM + DMSO (control); for inhibition at 0.4 µM: compound 0.4 uM + DMSO (control); for inhibition at 2 µM: compound 2 uM + DMSO (control); for inhibition at 10 µM: compound 10 uM + DMSO (control)
Method: High-throughput screening and synergy experiments. Compounds for the molecular targeted cancer therapeutics were either purchased from SelleckChem or acquired under Material Transfer Agreement (MTA) with the Wistar Institute MTA. Compounds were suspended in DMSO. The purity and identity of the compounds was confirmed by LC/MS for a fraction of the compounds. Source plates with a 10 point dilution series (5-fold dilutions, ranging from 10-0.0001 μmol/L) were prepared for screening. […] Cell viability was determined by the addition of resazurin to a final concentration of 50 μM and incubation for 8 h. Fluorescence intensity (excitation, 560 nm, emission, 590 nm) was determined on an Envision Xcite Multilabel Reader (Perkin-Elmer), and the fractional growth inhibition was determined by normalizing assay wells to the aggregated average responses of positive control (10 μM doxorubicin) and negative control (0.2% DMSO) treatments (n=12).

[2] = tested on: class I PI3K isoforms; details: cited from earlier work
[3] = tested on: Ser473-phosphorylated Akt (pAkt); test: Ser473-phosphorylated Akt in patient-derived organotypic cultures; assay type: cell-based, Human; details: tumor organoids, 48 h
Method: Organotypic cultures. Short-term organotypic cultures from the different patient samples were established as described previously. Briefly, precise thick tissue slices (300 μm) were obtained from each case by vibratome serial cutting (VT1200, Leica Microsystems, Milan, Italy), and cultured in six-well plates on organotypic inserts (Millicell PICM ORG, Merck Millipore) for up to 48 h in 1 ml of Ham-F12 complete medium supplemented with vehicle (DMSO, 2.5 μl), pan-PI3K inhibitor LY294002 (50 or 100 μM) or PX-886 (2.5, 5 or 10 μM), or mitochondrial-targeted small molecule Heat Shock Protein-90 (Hsp90) inhibitor, 10 Gamitrinib (GA mitochondrial matrix inhibitor, 10 or 25 μM), or the combination of PX-886 plus Gamitrinib (each agent used at 10 μM). At the end of the experiment, one tissue slice per condition was formalin-fixed and paraffin-embedded (FFPE), and processed for morphological and immunohistochemical analysis. An additional tissue slice collected at the end of the experiment was embedded in optimal cutting temperature, and snap-frozen for molecular or immunofluorescence studies.

[4] = tested on: Akt2 (Ser474) in cytosol and mitochondria; test: Phosphorylated Akt in cytosol and mitochondrial extracts by Western blotting; assay type: cell-based, Human; details: pretreatment with 17-AAG; cytosol and mitochondria
Method: Subcellular and submitochondrial fractionation. Mitochondrial fractions were isolated using an ApoAlertTM cell fractionation kit (CLONTECH), as described. Submitochondrial fractions comprising outer membrane (OM), inner membrane (IM), inter-membrane space (IMS) and matrix were prepared as described.

[5] = compound 0.000128 uM + Gamitrinib (1 μM)
[6] = compound 0.00064 uM + Gamitrinib (1 μM)
[7] = compound 0.0032 uM + Gamitrinib (1 μM)
[8] = compound 0.08 uM + Gamitrinib (1 μM)
[9] = compound 0.4 uM + Gamitrinib (1 μM)
[10] = compound 2 uM + Gamitrinib (1 μM)
[11] = compound 10 uM + Gamitrinib (1 μM)
[12] = compound 2.56E−05 uM + DMSO (control)
[13] = compound 2.56E−05 uM + Gamitrinib (1 μM)
[14] = compound 5.12E−06 uM + DMSO (control)
[15] = compound 5.12E−06 uM + Gamitrinib (1 μM)
[16] = compound […] + Gamitrinib (1 μM)

Structure (SMILES) | inhibition at 0.000128 µM [1] [%] | inhibition at 0.00064 µM [1] [%] | inhibition at 0.0032 µM [1] [%] | inhibition at […] [1] [%] | inhibition at 0.08 µM [1] [%] | inhibition at 0.4 µM [1] [%] | inhibition at 2 µM [1] [%] | inhibition at 10 µM [1] [%] | Percent inhibition [1, 5] [%] | Percent inhibition [1, 6] [%] | Percent inhibition [1, 7] [%] | Percent inhibition [1, 8] [%] | Percent inhibition [1, 9] [%] | Percent inhibition [1, 10] [%] | Percent inhibition [1, 11] [%] | Percent inhibition [1, 12] [%] | Percent inhibition [1, 13] [%] | Percent inhibition [1, 14] [%] | Percent inhibition [1, 15] [%] | Percent inhibition [1, 16] [%] | further results
Cn1c(=O)n(-c2ccc(C(C)(C)C#N)cc2)c2c3cc(-c4cnc5ccccc5c4)ccc3ncc21 [BEZ235] | -21.4 | 23.8 | 60.7 | 74.6 | 62.6 | 65.1 | 67.6 | 71.6 | 122.82 | 127.29 | 134.66 | 133.41 | 140.20 | 137.11 | 141.44 | −9.35 | 121.84 | −7.25 | 119.42 | 145.76 | –
FC(F)c1nc2ccccc2n1-c1nc(N2CCOCC2)nc(N2CCOCC2)n1 [ZSTK474] | – | – | – | – | – | – | – | – | – | – | – | – | – | – | – | – | – | – | – | – | PI3K activity ([2]; 1 μM): 4.7 % of the control level; IC50 ([2]; class I PI3K isoforms, mostly PI3Kδ): 37 nM
COc1ncc(-c2ccc3nccc(-c4ccnnc4)c3c2)cc1NS(=O)(=O)c1ccc(F)cc1F [GSK458] | 8.89 | 11.3 | 38.1 | 52.4 | 67.5 | 58.1 | 63.1 | 53.6 | 135.48 | 139.64 | 139.92 | 133.47 | 138.84 | 142.85 | 156.27 | 1.66 | 128.82 | 17.03 | 132.69 | 136.49 | –
C=CCNC1=C2C[C@@H](C)C[C@H](OC)[C@H](O)[C@@H](C)/C=C(\C)[C@H](OC(N)=O)[C@@H](OC)/C=C\C=C(/C)C(=O)NC(=CC1=O)C2=O [17-AAG, 17-(allylamino)-17-demethoxygeldanamycin] | – | – | – | – | – | – | – | – | – | – | – | – | – | – | – | – | – | – | – | – | phosphorylation of Akt on Ser473 [3]: had no effect; accumulation of phosphorylated Akt in response to PX-866 [4]: abolished the accumulation of phosphorylated Akt

Source: US20240342199A1, “COMBINATION THERAPIES TARGETING MITOCHONDRIA FOR CANCER THERAPY” (The Wistar Institute of Anatomy and Biology, priority 2014, published 2024)
